For test [1], the target named is T1, human CB1 receptor (Homo sapiens, UniProt P21554).
T1 construct: expressed in transfected cells; host or cells: HEK293
Briefly: bioSensAll β-arrestin plasma membrane translocation BRET biosensor (+GRK2) assay (antagonism of CP-55,940). It is filed as cell-based. The note with it: HEK293 cells transfected with hCB1 and β-arrestin PM translocation biosensor (+GRK2), EC75 of CP-55,940 (100 nM), overnight incubation, read-out: CB1 wt βarr2 IC50. As for the experimental part: (§1) Using polyethylenimine (PEI) transfection agent, HEK293 cells were transfected in suspension with the human CB1 or CB1b receptor and one of the following bioSensAll® assays: GAPL-Gi2, or β-arrestin plasma membrane (PM) translocation biosensor (+GRK2). Cells were directly seeded in 96-well plates immediately following transfection.
(§2) Cells were incubated with coelenterazine (luciferase substrate) and different test compounds prior to the measurement of BRET signals.
ii) The multimolecular β-arrestin membrane recruitment biosensors allow for real-time spatio-temporal monitoring of β-arrestin 1 and β-arrestin 2 following GPCR activation. Specifically, these β-arrestin sensors were designed to detect the recruitment of proteins to the plasma membrane (β-arrestin PM) with localization to compartment resulting in an increased BRET signal.
(§3) HEK293 cells were maintained in Dulbecco's Modified Eagle Medium (DMEM) (Wisent; cat #319-030-CL: without sodium pyruvate, with 4.5 g/L glucose, without L-glutamine) supplemented with 1% penicillin-streptomycin (Wisent; cat #450-201-EL) and 2 or 10% fetal bovine serum (Wisent cat #090150).
(§4) HEK293 cells were co-transfected with hCB1 or hCB1b and one of the above-listed bioSensAll® assays. For each transfection condition: • the total amount of transfected DNA was kept constant at 1 μg per mL of cell culture to be transfected; whenever necessary, salmon sperm DNA (Invitrogen, cat #15632011) was used as ‘carrier’ DNA to supplement plasmid DNA (i.e., biosensor and receptor); • the PEI (polyethylenimine 25 kDa linear, PolyScience, cat #23966) to DNA ratio (ug:ug) was fixed at 3:1.
(§5) Transfections were carried out as follows: • DNA and PEI were first diluted separately in 150 mM NaCl. The volume of the diluent in each tube corresponds to 5% of the cell culture volume to be transfected. • Once DNA and PEI were diluted, the PEI-containing solution was added to the DNA solution and the DNA/PEI mixture immediately vortexed for 5 seconds. • The DNA/PEI mixture was incubated for at least 20 minutes at room temperature to allow for the formation of DNA/PEI complexes. • During the incubation, HEK293 cells were detached, counted and re-suspended in culture medium (composition specified above). • At the end of the incubation period, the DNA/PEI mixture was added to the cells. • Cells were finally distributed in 96-well plates (White Opaque 96-well/Microplates, Greiner, cat #655083 or CulturPlate-96, White Opaque 96-well Microplate, PerkinElmer, cat #6005688) at a density of 30 000 cells per well.
(§6) At ˜48 hours post-transfection: • Using 450-Select TS Biotek plate washer, culture medium was aspirated and replaced with 100 μl of Hank's Balanced Salt Solution buffer (HBSS) (Wisent, cat #319-067CL: without red phenol; with sodium bicarbonate, with calcium and magnesium, with HEPES) per well. This process was performed a total of two times (i.e., 2 washes). • After the washing step, the HP D300 digital dispenser (Tecan) was used to inject increasing doses (12) of test compounds (ranging from 0-600 nM) to wells. Three to five minutes later, an EC75 of CP-55,940 (0.1 nM for GAPL-Gi2 assay; 100 nM for β-arrestin PM translocation biosensor (+GRK2)) was added to columns 2-12 of each 96-well plate.
(§7) BRET signals were determined by calculating the ratio of light emitted by GFP-acceptor (515 nm) over light emitted by luciferase-donor (400 nm). All BRET ratios were standardized using the equation below with pre-established BRET values for positive and negative controls. The standardized BRET ratio is referred to as universal BRET (uBRET).
(§8) Resulting dose-response curves were fitted using the four-parameter logistic non-linear regression model in GraphPad Prism 9.
A general note: BRET reads energy transfer from a luciferase to a nearby fluorophore.

Test [2] concerns the target T1, human CB1 receptor. Description: bioSensAll GAPL-Gi2 BRET biosensor assay (antagonism of CP-55,940). The conditions noted are these: HEK293 cells transfected with hCB1 and GAPL-Gi2 biosensor, EC75 of CP-55,940 (0.1 nM), overnight incubation, read-out: CB1 wt Gi2 IC50. It is filed as cell-based. As for the experimental part:
as §1, §2
i) GAPL sensors are used to monitor the activation of heterotrimeric G proteins at the plasma membrane upon receptor stimulation. Specifically, these multimolecular BRET sensors detect the plasma membrane recruitment of proteins that interact with active Ga subunits in a G protein family-selective manner. G protein activation following receptor stimulation generally leads to an increase in the BRET signal.
as §3, §4, §5, §6, §7, §8

T1 sequence (P21554 whole entry): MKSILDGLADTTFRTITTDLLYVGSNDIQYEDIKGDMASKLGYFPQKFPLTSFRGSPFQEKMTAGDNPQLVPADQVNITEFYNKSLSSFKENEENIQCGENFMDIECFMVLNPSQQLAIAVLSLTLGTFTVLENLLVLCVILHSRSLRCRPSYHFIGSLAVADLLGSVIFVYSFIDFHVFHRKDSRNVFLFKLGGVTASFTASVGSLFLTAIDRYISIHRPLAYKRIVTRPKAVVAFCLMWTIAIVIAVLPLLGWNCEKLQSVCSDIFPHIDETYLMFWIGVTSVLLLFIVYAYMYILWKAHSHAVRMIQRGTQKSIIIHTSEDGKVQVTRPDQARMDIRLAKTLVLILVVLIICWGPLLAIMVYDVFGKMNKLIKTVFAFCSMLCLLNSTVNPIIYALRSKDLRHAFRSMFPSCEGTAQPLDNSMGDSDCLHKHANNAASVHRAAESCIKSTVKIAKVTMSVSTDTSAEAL

For orientation: IC50 means the concentration at which inhibition is half-maximal. As to `CCNC1(C(N)=O)CCN(c2cc(N3CCC[C@H]3CO)nc3c(-c4ccc(Cl)cc4)c(-c4ccccc4Cl)nn23)CC1` [Compound 1, 1-[2-(2-chlorophenyl)-3-(4-chlorophenyl)-5-[(2S)-2-(hydroxymethyl)pyrrolidin-1-yl]pyrazolo[1,5-a]pyrimidin-7-yl]-4-(ethylamino)piperidine-4-carboxamide], the IC50 at human CB1 receptor [1] turned out to be 4.31 nM; on human CB1 receptor [2], 1.2 nM.
The like results for `OC[C@@H]1CCCN1c1cc(N2CCC(C(F)(F)F)CC2)n2nc(-c3ccccc3Cl)c(-c3ccc(Cl)cc3)c2n1` [Compound 2, [(2S)-1-[2-(2-chlorophenyl)-3-(4-chlorophenyl)-7-[4-(trifluoromethyl)-1-piperidyl]pyrazolo[1,5-a]pyrimidin-5-yl]pyrrolidin-2-yl]methanol] were, in that order, 5.27 nM and 1.28 nM.
As to `COc1ccccc1-c1nn2c(-c3cccc(C#N)c3)cc(N3CCC[C@H]3CO)nc2c1-c1ccc(Cl)cc1` [Compound 3, 3-[3-(4-chlorophenyl)-5-[(2S)-2-(hydroxymethyl)pyrrolidin-1-yl]-2-(2-methoxyphenyl)pyrazolo[1,5-a]pyrimidin-7-yl]benzonitrile], the values for the IC50 at human CB1 receptor [1] and at human CB1 receptor [2] were 9.94 nM and 1.77 nM, respectively.
The matching figures for `OC[C@@H]1CCCN1c1cc(-c2ccc(C(F)(F)F)cc2)n2nc(-c3ccccc3Cl)c(-c3ccc(Cl)cc3)c2n1` [Compound 4, [(2S)-1-[2-(2-chlorophenyl)-3-(4-chlorophenyl)-7-[4-(trifluoromethyl)phenyl]pyrazolo[1,5-a]pyrimidin-5-yl]pyrrolidin-2-yl]methanol]: 10.6 nM and 4.04 nM.
With `COc1ccc(-c2cc(N3CCC[C@H]3CO)nc3c(-c4ccc(Cl)cc4)c(-c4ccccc4Cl)nn23)cc1` [Compound 5, [(2S)-1-[2-(2-chlorophenyl)-3-(4-chlorophenyl)-7-(4-methoxyphenyl)pyrazolo-[1,5-a]pyrimidin-5-yl]pyrrolidin-2-yl]methanol], the results for the IC50 at human CB1 receptor [1] and at human CB1 receptor [2] were 8.6 nM and 3.69 nM, respectively.
As for `COc1ccccc1-c1nn2c(-c3ccc(C(F)(F)F)cc3)cc(N3CCC[C@H]3CO)nc2c1-c1ccc(Cl)cc1` [Compound 6, [(2S)-1-[3-(4-chlorophenyl)-2-(2-methoxyphenyl)-7-[4-(trifluoromethyl)phenyl]pyrazolo[1,5-a]pyrimidin-5-yl]-pyrrolidin-2-yl]methanol], the IC50 amounted to 146 nM at human CB1 receptor [1] and 14.1 nM at human CB1 receptor [2].
The like results for `O=S(=O)(N1CCN(c2cc(N3CCC[C@H]3CO)nc3c(-c4ccc(Cl)cc4)c(-c4ccccc4Cl)nn23)CC1)C(F)(F)F` [Compound 7, [(2S)-1-[2-(2-chlorophenyl)-3-(4-chlorophenyl)-7-[4-(trifluoromethylsulfonyl)piperazin-1-yl]pyrazolo[1,5-a]pyrimidin-5-yl]pyrrolidin-2-yl]methanol] were, in that order, 3.31 nM and 1.55 nM.
Take `OC[C@@H]1CCCN1c1cc(-c2ccc(C(F)(F)F)nc2)n2nc(-c3ccccc3Cl)c(-c3ccc(Cl)cc3)c2n1` [Compound 8, [(2S)-1-[2-(2-chlorophenyl)-3-(4-chlorophenyl)-7-[6-(trifluoromethyl)-3-pyridyl]pyrazolo[1,5-a]pyrimidin-5-yl]pyrrolidin-2-yl]methanol]: the IC50 on human CB1 receptor [1] stood at 4.41 nM; on human CB1 receptor [2], 1.8 nM.
Consider `CC1(C(N)=O)CCN(c2cc(N3CCC[C@H]3CO)nc3c(-c4ccc(Cl)cc4)c(-c4ccccc4Cl)nn23)CC1` [Compound 9, 1-[2-(2-chlorophenyl)-3-(4-chlorophenyl)-5-[(2S)-2-(hydroxymethyl)pyrrolidin-1-yl]pyrazolo[1,5-a]pyrimidin-7-yl]-4-methyl-piperidine-4-carboxamide], for which the IC50 was found to be 1.84 nM at human CB1 receptor [1] and 0.351 nM on human CB1 receptor [2].
For `CN(CCO)c1cc(N2CCC(C)(C(N)=O)CC2)n2nc(-c3ccccc3Cl)c(-c3ccc(Cl)cc3)c2n1` [Compound 10, 1-[2-(2-chlorophenyl)-3-(4-chlorophenyl)-5-[2-hydroxyethyl(methyl)amino]pyrazolo[1,5-a]pyrimidin-7-yl]-4-methyl-piperidine-4-carboxamide], the IC50 at human CB1 receptor [1] was found to be 1.74 nM; at human CB1 receptor [2], 0.255 nM.
In the case of `O=S1(=O)CCC(Nc2cc(N3CCC[C@H]3CO)nc3c(-c4ccc(Cl)cc4)c(-c4ccccc4Cl)nn23)CC1` [Compound 11, [(2S)-1-[2-(2-chlorophenyl)-3-(4-chlorophenyl)-7-[(1,1-dioxothian-4-yl)amino]pyrazolo[1,5-a]pyrimidin-5-yl]pyrrolidin-2-yl]methanol], the values for the half-inhibitory concentration (IC50) at human CB1 receptor [1] and at human CB1 receptor [2] were 1.33 nM and 0.481 nM, respectively.
`CC(C)Oc1cc(N(C)CCO)nc2c(-c3ccc(Cl)cc3)c(-c3ccccc3Cl)nn12` [Compound 12, 2-[[2-(2-chlorophenyl)-3-(4-chlorophenyl)-7-isopropoxy-pyrazolo[1,5-a]pyrimidin-5-yl]-methyl-amino]ethanol]: the IC50 at human CB1 receptor [1] amounted to 16.8 nM; on human CB1 receptor [2], 1.69 nM.
As to `CC(C)(O)COc1cc(N2CCC(C)(C(N)=O)CC2)n2nc(-c3ccccc3Cl)c(-c3ccc(Cl)cc3)c2n1` [Compound 13, 1-[2-(2-chlorophenyl)-3-(4-chlorophenyl)-5-(2-hydroxy-2-methyl-propoxy)pyrazolo[1,5-a]pyrimidin-7-yl]-4-methyl-piperidine-4-carboxamide], the IC50 stood at 3.51 nM at human CB1 receptor [1] and 1.26 nM on human CB1 receptor [2].
The matching figures for `CC(C)(O)COc1cc(N2CCC(C)(O)CC2)n2nc(-c3ccccc3Cl)c(-c3ccc(Cl)cc3)c2n1` [Compound 14, 1-[2-(2-chlorophenyl)-3-(4-chlorophenyl)-5-(2-hydroxy-2-methyl-propoxy)pyrazolo[1,5-a]pyrimidin-7-yl]-4-methyl-piperidin-4-ol]: 9.25 nM and 2.52 nM.
For the compound `CC(C)(O)COc1cc(N2CCN(S(=O)(=O)C(F)(F)F)CC2)n2nc(-c3ccccc3Cl)c(-c3ccc(Cl)cc3)c2n1` [Compound 15, 1-[2-(2-chlorophenyl)-3-(4-chlorophenyl)-7-[4-(trifluoromethylsulfonyl)piperazin-1-yl]pyrazolo[1,5-a]pyrimidin-5-yl]oxy-2-methyl-propan-2-ol], the results for the IC50 at human CB1 receptor [1] and on human CB1 receptor [2] were 9.55 nM and 3.97 nM, respectively.
Consider `CC(C)(O)COc1cc(N2CCN(S(C)(=O)=O)CC2)n2nc(-c3ccccc3Cl)c(-c3ccc(Cl)cc3)c2n1` [Compound 16, 1-[2-(2-chlorophenyl)-3-(4-chlorophenyl)-7-(4-methylsulfonylpiperazin-1-yl)pyrazolo[1,5-a]pyrimidin-5-yl]oxy-2-methyl-propan-2-ol], for which the half-maximal inhibitory concentration (IC50) worked out at 13.3 nM on human CB1 receptor [1] and 5.91 nM at human CB1 receptor [2].
For `CC(C)(O)COc1cc(N2CCC[C@@H](C(N)=O)C2)n2nc(-c3ccccc3Cl)c(-c3ccc(Cl)cc3)c2n1` [Compound 17(R), 1-[2-(2-chlorophenyl)-3-(4-chlorophenyl)-5-(2-hydroxy-2-methyl-propoxy)pyrazolo[1,5-a]pyrimidin-7-yl]piperidine-3-carboxamide], the IC50 at human CB1 receptor [1] was determined as 49.8 nM; at human CB1 receptor [2], 17.1 nM.

The values above are taken from patent US20250145628A1, “PYRAZOLOPYRIMIDINES, COMPOSITIONS COMPRISING THEM AND USES THEREOF” (Novo Nordisk A/S, priority 2022, published 2025).
